“Also recorded” adds a separate entry of the source.

Assay type in all cases: cell-based, human
In test [1] the test system is PNET2 cells induced to express AD7c-NTP. In words: Crystal violet viability assay. The settings on record: 3 mM IPTG-induced AD7c-NTP; relative to un-induced FCS-stimulated and IPTG-induced NGF or PDGF stimulated cultures. How it is done: (§1) To examine the effects of different growth factors on AD7c-NTP expression (and over-expression), the cells were serum-starved for 16 hours, after which IPTG (1-5 mM) was added to the medium. Four hours later, the cells were stimulated with insulin (50 nM), IGF-1 (5 ng/ml), NGF ([…]), or platelet-derived growth factor (PDGF; 5 ng/ml) for 24-72 hours. The cells were analyzed for morphological changes, viability, AD7c-NTP immunoreactivity, and expression of pro-apoptosis genes, survival genes, and phospho-tau.
Viability was measured by a standard crystal violet assay. Crystal violet dye labels only viable cells. The assays were performed with cells seeded into 96-well plates at a density of 2×10^4 cells/well. The absorbances were measured using a Spectracount plate reader (Packard, Meriden, Conn.). The crystal violet absorbances increased linearly with cell density between 10^4 and 5×10^5 cells/well.
Cells were serum-starved for 24 hours. However, since several hours of IPTG stimulation were required to induce AD7c-NTP gene expression or CAT activity, IPTG (3 mM) was added to the cultures after 16 hours of serum-starvation, i.e. 8 hours prior to growth factor stimulation. […]
Increased cell loss associated with insulin-stimulation and AD7c-NTP over-expression Cell viability was quantified using the microculture Crystal violet assay with cells seeded into 96-well plates. […]

Test [2] has the same test system. As to the kind of experiment: Cell morphology by phase contrast microscopy. The settings on record: IPTG-induced AD7c-NTP; insulin 50 nM, IGF-1 5 ng/ml, NGF 2.5 ng/ml, PDGF 5 ng/ml; 24-48 hours. How it is done:
as §1
Cells were serum-starved for 24 hours. However, since several hours of IPTG stimulation were required to induce AD7c-NTP gene expression or CAT activity, IPTG (3 mM) was added to the cultures after 16 hours of serum-starvation, i.e. 8 hours prior to growth factor stimulation. The cells were stimulated with insulin (50 nM), IGF-1 (5 ng/ml), NGF (2.5 ng/ml), or PDGF (5 ng/ml) and examined by phase contrast microscopy 24-48 hours later. PNET2 cells could be maintained in serum-free medium for 5 to 7 days with insulin, IGF-1, NGF, or PDGF as the only growth stimulus. In addition, each of these growth factors supports DNA synthesis and promotes modest outgrowth of multipolar neurites in PNET2 cells.

For another test, the system named is p53. In words: p53 expression, Western blot / MICE assay. Particulars: PNET2 cells induced to express AD7c-NTP, growth factor stimulated. An excerpt:
(§2) Standard Western blot assays wew used to measure cellular levels of p53, Bcl-2, p21/Waf1, phospho-tau, tau, c-fos, NTP, and activated (phosphorylated) forms of Erk mitogen activated protein (MAP) kinase, amino-terminal c-jun-activated kinase (pJNK), and p38/HOG1. Immunoprecipitation followed by Western blot analysis was used to measure p85 subunit associated with IRS1. For Western blot analysis of p53 Bcl-2, phospho-tau, tau, c-fos, and NTP, the cells were lysed in ice cold radioimmunoprecipitation assay (RIPA) buffer supplemented with protease and phosphatase inhibitors. For the immunoprecipitation studies, Western blot analysis of phospho-Erk, pJNK, and p38, and the PI3 kinase assays, the cells were harvested in Triton lysis buffer supplemented with protease and phosphatase inhibitors. Protein concentrations were measured using the BCA assay (Pierce, Rockford, Ill.). Samples containing 60 μg of protein were fractionated by sodium dodecyl sulfate polyacrylamide gel electrophoresis (SDS-PAGE), then transferred to PVDF membranes, and analyzed by Western immunoblotting. Immunoreactivity was detected with horseradish peroxidase conjugated secondary IgG and PicoWest enhanced chemiluminescence reagents (Pierce Chemical Company, Rockford, Ill.). CAT activity was measured using known methods.
(§3) The MICE assay is known in the art (e.g., as described by de la Monte et al., 1999, Biotechniques 26:107301076). The assay is a rapid and sensitive method for quantifying immunoreactivity in 96-well micro-cultures and combines the advantages of the enzyme-linked immunosorbant assay with immunocytochemical staining to permit sensitive in situ quantification of protein expression with values normalized to cell density. […] Immunoreactivity was detected using horseradish peroxidase conjugated secondary antibody (Pierce, Rockford, Ill.) and the TMB soluble peroxidase substrate (Pierce, Rockford, Ill.). Absorbances were measured at 450 nm using a Spectracount plate reader. […]
A general note: In western blotting, separated proteins are transferred to a membrane and probed.

For the next test, the system named is Bcl-2. In words: Bcl-2 expression, Western blot / MICE assay. Particulars: PNET2 cells induced to express AD7c-NTP, growth factor stimulated.
From the text: as §2, §3

In another test the test system is phospho-tau. In words: phospho-tau expression, Western blot / MICE assay. Particulars: PNET2 cells induced to express AD7c-NTP; relative to PDGF-stimulated cultures.
From the text: as §2, with “For the immunoprecipitation studies, Western blot analysis of phospho-Erk, pJNK, and p38, and the PI3 kinase assays, the cells were harvested in Triton lysis buffer supplemented with protease and phosphatase inhibitors.” left out
(§4) The MICE assay is known in the art (e.g., as described by de la Monte et al., 1999, Biotechniques 26:107301076). […] Immunoreactivity was detected using horseradish peroxidase conjugated secondary antibody (Pierce, Rockford, Ill.) and the TMB soluble peroxidase substrate (Pierce, Rockford, Ill.). […]

A further test has as its system p25. In words: p25 expression, Western blot / MICE assay. Particulars: PNET2 cells induced to express AD7c-NTP.
From the text: as §2, with “For the immunoprecipitation studies, Western blot analysis of phospho-Erk, pJNK, and p38, and the PI3 kinase assays, the cells were harvested in Triton lysis buffer supplemented with protease and phosphatase inhibitors.” left out
as §4

As to “insulin: Human insulin purchased from Novagen”, the “cell density (crystal violet)” value in test [1] was “significantly reduced cell densities”. Moreover, the cell morphology entry in test [2] is “neurite retraction, cell rounding and increased cell death”. Moreover, the p53 level result in the test with p53 is “high levels of p53; also recorded: significantly increased levels”. Moreover, the Bcl-2 level entry in the test on Bcl-2 is “virtually undetectable Bcl-2 expression; also recorded: reduced levels”. In addition, the phospho-tau level entry with phospho-tau is “increased levels”. Besides, the p25 level entry in the test with p25 was “significantly increased levels”.

(Values after patent US7319094B2, “Increased and sustained in vivo gene expression using a nucleic acid, histone and amphipathic compound composition” (Rhode Island Hospital, priority 2001, dated 2008).)
